Reference: ChEMBL document CHEMBL1157294, “Rautandiols A and B, pterocarpans and cytotoxic constituents from Neorautanenia mitis” (J Nat Prod, 2006)
In brackets after ≈: the same amount, converted by molar mass.

Tests used:
A549 = test: Cytotoxicity against human A549 cells after 3 days by SRB assay; format: functional, cell-based; conditions: A549, 72 h
MCF7 = test: Cytotoxicity against human MCF7 cells after 3 days by SRB assay; format: functional, cell-based; conditions: MCF7, 72 h

C=C(C)[C@H]1Cc2c(ccc3c(=O)c4c(oc23)COc2cc(OC)c(OC)cc2-4)O1 [DEHYDROROTENONE]
IC50 (A549): > 5 µg/mL
IC50 (MCF7): > 5 µg/mL

COc1cc(OC)c(-c2coc3cc4occc4cc3c2=O)cc1OC [ISOELLIPTOL]
IC50 (A549): 1.6 µg/mL (≈ 4.54 µM)
IC50 (MCF7): 0.8 µg/mL (≈ 2.27 µM)

c1cc2cc3c(cc2o1)OC[C@H]1c2cc4c(cc2O[C@@H]31)OCO4 [NEODULIN]
IC50 (A549): > 5 µg/mL
IC50 (MCF7): > 5 µg/mL

COc1cc2c(cc1-c1cc3cc4ccoc4cc3oc1=O)OCO2 [PACHYRRIZINE]
IC50 (A549): > 5 µg/mL
IC50 (MCF7): 3.6 µg/mL (≈ 10.7 µM)

CC1(C)Oc2cc3c(cc2CC1O)[C@@H]1Oc2cc(O)ccc2[C@@H]1CO3 (some centres undefined) [RAUTANDIOL A]
IC50 (A549): > 5 µg/mL
IC50 (MCF7): > 5 µg/mL

CC(C)(O)C1Cc2cc3c(cc2O1)OC[C@H]1c2ccc(O)cc2O[C@@H]31 (some centres undefined) [RAUTANDIOL B]
IC50 (A549): > 5 µg/mL
IC50 (MCF7): > 5 µg/mL

C=C(C)[C@H]1Cc2c(ccc3c2O[C@@H]2COc4cc(OC)c(OC)cc4[C@@H]2C3=O)O1 [ROTENONE]
IC50 (A549): 0.04 µg/mL (≈ 0.101 µM)
IC50 (MCF7): 0.008 µg/mL (≈ 0.0203 µM)
